Laboratory results taken from patent publication US20100279941A1, “CD36 MODULATION AND USES THEREOF” (priority 2009, published 2010).

How the values were obtained:
Assay type in all cases: in vivo
[1] = tested on: CD36^+/+ and CD36^−/− mice; assay: Myeloperoxidase assay of myocardial leukocyte accumulation; settings: 48 hours reperfusion; CD36-dependent (CD36^+/+ mice); 10-week pretreatment; p<0.05
Procedure: Experimental model of IHD: Transient left coronary artery ligation in vivo. Mice were subjected to a transient LCAL surgery as described before, with minor modifications [Tarnayski et al., 2004]. Mice were injected i.p. with buprenorphine (0.05 mg/kg) and placed in an induction chamber with inhalation anesthesia comprised of 3% isoflurane mixed with 100% oxygen. Mice were intubated with a blunt ended 20-gauge catheter into the trachea via the mouth and mechanically ventilated at a tidal volume of 7 ml/kg at 130 respirations/min with a MiniVent™ mouse ventilator (model 845, Harvard Apparatus, Saint-Laurent, QC, Canada). Anesthesia was maintained with 1.5-2% isoflurane and the animals were kept warm using electrical heating pads during the surgical procedure. The chest was opened by a horizontal incision through the skin and muscle layers at the third intercostal space exposing the left side of the heart. […] Visual blanching distal to the coronary occlusion confirmed myocardial ischaemia. Lidocaine (6 mg/kg) was administered i.p. just following occlusion and prior to reperfusion. After 30 minutes, the PE10 tubing was removed allowing reperfusion. The lungs were reinflated and the chest wound closed layer by layer before extubation. […]
Myeloperoxidase assay. […] The numbers of PMN per left ventricle were calculated from the standard curves.

[2] = tested on: CD36^+/+ and CD36^−/− mice; assay: Myocardial NEFA uptake by μPET with [18F]-FTHA; settings: 6 hours reperfusion, in words
Procedure: Experimental model of IHD: Transient left coronary artery ligation in vivo. Mice were subjected to a transient LCAL surgery as described before, with minor modifications [Tarnayski et al., 2004]. Mice were injected i.p. with buprenorphine (0.05 mg/kg) and placed in an induction chamber with inhalation anesthesia comprised of 3% isoflurane mixed with 100% oxygen. Mice were intubated with a blunt ended 20-gauge catheter into the trachea via the mouth and mechanically ventilated at a tidal volume of 7 ml/kg at 130 respirations/min with a MiniVent™ mouse ventilator (model 845, Harvard Apparatus, Saint-Laurent, QC, Canada). Anesthesia was maintained with 1.5-2% isoflurane and the animals were kept warm using electrical heating pads during the surgical procedure. The chest was opened by a horizontal incision through the skin and muscle layers at the third intercostal space exposing the left side of the heart. […] Visual blanching distal to the coronary occlusion confirmed myocardial ischaemia. Lidocaine (6 mg/kg) was administered i.p. just following occlusion and prior to reperfusion. After 30 minutes, the PE10 tubing was removed allowing reperfusion. The lungs were reinflated and the chest wound closed layer by layer before extubation. At 6 hours following reperfusion, mice were anesthetized (isoflurane), a blood sample withdrawn, and the heart arrested in diastole by an intravenous injection of 1 M KCl (0.5 mL). Hearts were immediately frozen at −80° C. unless otherwise stated.
Imaging experiments. Imaging experiments were performed with the avalanche photodiode-based small animal PET scanner (μPET) [Lecomte et al., 1996]. […]
Imaging Data Analysis. For [^11C]-acetate images, dynamic series of 25 frames each were sorted out whereas 27 frames were used for ^18FDG and ^18FTHA imaging, and were reconstructed and analyzed using multicompartmental analysis [Menard et al., 2009] or the Patlak method for FTHA [Patlak and Blasberg, 1985]. […]
Plasma and tissue assays. Plasma insulin, triglyceride (TG) and NEFA levels were measured as previously described [Menard et al., 2009]. […]

C57BL/6 mice = assay: Cardiac troponin I (cTnI) in plasma, ELISA; settings: 48 hours post-ischemia; 2 weeks 289 nmol/kg; compared to vehicle
Procedure: C57BU6 mice were bred in house. Male mice, aged 23 (±1) weeks, were used for experiments. They were fed standard chow (#5075, Charles Rivers, Saint-Constant, Québec, Canada) and water ad libitum, and housed singly during treatment periods (2 weeks). Daily pharmacological treatments with 300 μg/kg (289 nmol/kg) of EP 80317 or 289 nmol/kg of CP-3(IV), 289 nmol/kg of CP-AP-4 or vehicle (0.9% NaCl) were done by subcutaneous (s.c.) injections.
Experimental model of IHD: Transient left coronary artery ligation in vivo. Mice were subjected to a transient LCAL surgery as described before, with minor modifications [Tarnayski et al., 2004]. Mice were injected i.p. with buprenorphine (0.05 mg/kg) and placed in an induction chamber with inhalation anesthesia comprised of 3% isoflurane mixed with 100% oxygen. Mice were intubated with a blunt ended 20-gauge catheter into the trachea via the mouth and mechanically ventilated at a tidal volume of 7 ml/kg at 130 respirations/min with a MiniVent™ mouse ventilator (model 845, Harvard Apparatus, Saint-Laurent, QC, Canada). Anesthesia was maintained with 1.5-2% isoflurane and the animals were kept warm using electrical heating pads during the surgical procedure. The chest was opened by a horizontal incision through the skin and muscle layers at the third intercostal space exposing the left side of the heart. […] Visual blanching distal to the coronary occlusion confirmed myocardial ischaemia. Lidocaine (6 mg/kg) was administered i.p. just following occlusion and prior to reperfusion. After 30 minutes, the PE10 tubing was removed allowing reperfusion. The lungs were reinflated and the chest wound closed layer by layer before extubation. […] Hearts were immediately frozen at −80° C. unless otherwise stated.
Cardiac troponin I (cTnI) concentrations in plasma. cTnI plasma levels were assayed using the High Sensitivity Mouse Cardiac Troponin-I ELISA Kit (Life Diagnostics, Inc., West Chester, Pa., Cat. No. 2010-1-HSP), according to the manufacturer's instructions.

Substance: HAIC-2MeDTrp-DLys-Trp-DPhe-Lys-NH2 [EP 80317]
- reduction in myocardial leukocyte accumulation [1]: 53%
- total plasma NEFA uptake (Km) ([2]; CD36^+/+ mice): reduced
- mean fractional uptake rate (Ki) of plasma NEFA ([2]; CD36^+/+ or CD36^−/− mice): not affected
- net fatty acid uptake (Km) ([2]; CD36^−/− mice): not modulated
- reduction of cardiac troponin I (cTnI) levels in plasma (C57BL/6 mice): 60%
